The values below are quoted from earlier work in PMC3005221 (Biochemistry, 2010).

This data set addresses HDAC6 BUZ domain. The settings on record: read-out: KD for HDAC6 BUZ domain (reported); full-length ubiquitin.

Turning to ubiquitin, the Kd was 60 nM.

One may read the Kd as the constant that tells how readily two partners part at equilibrium.
